From patent US5352804A, “Isolation and structure of Halistatin 2” (Arizona Board of Regents, a body corporate, acting on …, priority 1993, dated 1994)
Where two headings read alike, the source gives them in different places.

Experiments:
COLO 205 = test: NCI human tumor in vitro primary screen; type: cell-based; settings: colon cancer
Description: (§1) Only two hundred years ago, many diseases ravaged humankind. Many of these diseases now have been controlled or eradicated. In the development of the means to treat or control these diseases, work with the appropriate common experimental animals was of critical importance. With the various types of cancers, and with the HIV virus, such work is presently ongoing. The research for the treatment of various types of cancer is coordinated in the United States by the National Cancer Institute (NCI). NCI, as a government entity, has been charged with assisting anti-cancer research. To establish whether a substance has anti cancer activity, NCI has established a variety of protocols, one of which involves testing the candidate substance against a cell line panel containing 60 human tumor cell lines. This protocol has been verified and is generally accepted throughout the scientific community. This protocol and the established statistical means of evaluating the results obtained therefrom have been fully described in the literature. See Principles & Practice of Oncology PPO Updates, Volume 3, Number 10, Oct. 1989, by Michael R. Boyd, M.D., Ph.D., for an indepth description of the test protocol. The statistical analysis is explained in "Display and Analysis of Patterns of Differential Activity of Drugs Against Human Tumor Cell Lines: Development of Means Graph and COMPARE Algorithm" Journal of the National Cancer Institute Reports Vol. 81, No. 14, Pg. 1088, Jul. 14, 1989, by K. D. Paull et al. Both of these references are incorporated herein by this reference thereto.
(§2) Biological Testing; Data Display and Analysis; Screening Data Summary. Freshly isolated halistatin 2 was tested in the NCI's human tumor, disease-oriented in vitro primary screen, and data calculations performed. Table 3 is a composite prepared from mean graphs constructed from the averaged GI50 values from quadruplicate screenings of Halistatin 2.

UO-31 = test: NCI human tumor in vitro primary screen; type: cell-based; settings: renal cancer
Description: as §1, §2

SNB-19 = test: NCI human tumor in vitro primary screen; type: cell-based; settings: CNS cancer
Description: as §1, §2

HL-60TB = test: NCI human tumor in vitro primary screen; type: cell-based; settings: leukemia
Description: as §1, §2

OVCAR-3 = test: NCI human tumor in vitro primary screen; type: cell-based; settings: ovarian cancer
Description: as §1, §2

MOLT-4 = test: NCI human tumor in vitro primary screen; type: cell-based; settings: leukemia
Description: as §1, §2

ACHN = test: NCI human tumor in vitro primary screen; type: cell-based; settings: renal cancer
Description: as §1, §2

HOP-18 = test: NCI human tumor in vitro primary screen; type: cell-based; settings: non-small cell lung cancer
Description: as §1, §2

SK-OV-3 = test: NCI human tumor in vitro primary screen; type: cell-based; settings: ovarian cancer
Description: as §1, §2

SN12C = test: NCI human tumor in vitro primary screen; type: cell-based; settings: renal cancer
Description: as §1, §2

HCT-116 = test: NCI human tumor in vitro primary screen; type: cell-based; settings: colon cancer
Description: as §1, §2

786-0 = test: NCI human tumor in vitro primary screen; type: cell-based; settings: renal cancer
Description: as §1, §2

SW-620 = test: NCI human tumor in vitro primary screen; type: cell-based; settings: colon cancer
Description: as §1, §2

MALME-3M = test: NCI human tumor in vitro primary screen; type: cell-based; settings: melanoma
Description: as §1, §2

IGROV-1 = test: NCI human tumor in vitro primary screen; type: cell-based
Description: as §1, §2

CCRF-CEM = test: NCI human tumor in vitro primary screen; type: cell-based; settings: leukemia
Description: as §1, §2

SNB-78 = test: NCI human tumor in vitro primary screen; type: cell-based; settings: CNS cancer
Description: as §1, §2

RPMI-8226 = test: NCI human tumor in vitro primary screen; type: cell-based; settings: leukemia
Description: as §1, §2

SR = test: NCI human tumor in vitro primary screen; type: cell-based; settings: leukemia, read-out: averaged negative log10 GI50 (converted)
Description: as §1, §2

HT29 = test: NCI human tumor in vitro primary screen; type: cell-based; settings: HT-29, colon cancer
Description: as §1, §2

RXF-393 = test: NCI human tumor in vitro primary screen; type: cell-based
Description: as §1, §2

human tumor cell lines = test: cells; type: cell-based
tubulin = test: glutamate-induced polymerization of purified tubulin; type: biochemical
Protocol: Halistatin 2 was evaluated to determine if it was an antimitotic agent which interfered with the polymerization of purified tubulin and microtubule assembly dependent on microtubule-associated proteins isolated.
For radiolabeled GTP binding to tubulin, the same drug concentrations inhibited the reaction by 17% and 51% with halistatin 2.

[1] = tested on: L1210 murine leukemia cells; test: cytotoxicity in L1210 murine leukemia cells; type: cell-based
[2] = read-out: Log10 GI50 (converted)
[3] = read-out: Log10 TGI (converted)
[4] = read-out: averaged negative log10 GI50 (converted)

C=C1CC2CCC34CC5OC6C(O3)C3OC(CCC3OC6(O)C5O4)CC(=O)OC3C(CC4OC(CCC1O2)CC(C)C4=C)OC1CC2OC4(CC2OC1C3C)CC1OC2(CC(C)C3OC5CC(C(O)CO)OC5CC3O2)CC(C)C1O4 (centres unmarked) [halistatin 2]
GI50 (COLO 205; [2]): 0.219 nM
IC (TGI) (COLO 205; [3]): 1.51 nM
GI50 (COLO 205; [4]): 0.219 nM
GI50 (UO-31; [2]): 6.03 nM
IC (TGI) (UO-31; [3]): 10 nM
GI50 (UO-31; [4]): 6.03 nM
GI50 (SNB-19; [2]): 2.09 nM
IC (TGI) (SNB-19; [3]): 10 nM
GI50 (SNB-19; [4]): 2.09 nM
GI50 (HL-60TB; HL-60(TB), read-out: Log10 GI50 (converted)): 0.158 nM
IC (TGI) (HL-60TB; HL-60(TB), read-out: Log10 TGI (converted)): 1 nM
GI50 (HL-60TB; HL-60TB, read-out: averaged negative log10 GI50 (converted)): 0.158 nM
GI50 (OVCAR-3; [2]): 0.282 nM
IC (TGI) (OVCAR-3; [3]): 1.58 nM
GI50 (OVCAR-3; [4]): 0.282 nM
GI50 (MOLT-4; [2]): 0.407 nM
IC (TGI) (MOLT-4; [3]): 10 nM
GI50 (MOLT-4; [4]): 0.407 nM
GI50 (ACHN; [2]): 4.37 nM
IC (TGI) (ACHN; [3]): 10 nM
GI50 (ACHN; [4]): 4.37 nM
GI50 (HOP-18; [2]): 2.82 nM
IC (TGI) (HOP-18; [3]): 10 nM
GI50 (HOP-18; [4]): 2.82 nM
GI50 (SK-OV-3; [2]): 0.676 nM
IC (TGI) (SK-OV-3; [3]): 10 nM
GI50 (SK-OV-3; [4]): 0.676 nM
GI50 (SN12C; [2]): 1.82 nM
IC (TGI) (SN12C; [3]): 10 nM
GI50 (SN12C; [4]): 1.82 nM
GI50 (HCT-116; [2]): 0.55 nM
IC (TGI) (HCT-116; [3]): 10 nM
GI50 (HCT-116; [4]): 0.55 nM
GI50 (786-0; [2]): 0.389 nM
IC (TGI) (786-0; [3]): 10 nM
GI50 (786-0; [4]): 0.389 nM
GI50 (SW-620; [2]): 0.398 nM
IC (TGI) (SW-620; [3]): 10 nM
GI50 (SW-620; [4]): 0.398 nM
GI50 (MALME-3M; [2]): 0.229 nM
IC (TGI) (MALME-3M; [3]): 10 nM
GI50 (MALME-3M; [4]): 0.229 nM
GI50 (IGROV-1; IGROV1, ovarian cancer, read-out: Log10 GI50 (converted)): 0.891 nM
IC (TGI) (IGROV-1; IGROV1, ovarian cancer, read-out: Log10 TGI (converted)): 10 nM
GI50 (IGROV-1; ovarian cancer, read-out: averaged negative log10 GI50 (converted)): 0.891 nM
GI50 (CCRF-CEM; [2]): 0.2 nM
IC (TGI) (CCRF-CEM; [3]): 4.27 nM
GI50 (CCRF-CEM; [4]): 0.2 nM
GI50 (SNB-78; [2]): 0.12 nM
IC (TGI) (SNB-78; [3]): 10 nM
GI50 (SNB-78; [4]): 0.12 nM
GI50 (RPMI-8226; [2]): 0.407 nM
IC (TGI) (RPMI-8226; [3]): 10 nM
GI50 (RPMI-8226; [4]): 0.407 nM
GI50 (SR): 0.214 nM
GI50 (HT29; [2]): 0.457 nM
IC (TGI) (HT29; [3]): 3.72 nM
GI50 (HT29; [4]): 0.457 nM
GI50 (RXF-393; RXF 393, printed RXP-393, renal cancer, read-out: Log10 GI50 (converted)): 0.479 nM
IC (TGI) (RXF-393; RXF 393, printed RXP-393, renal cancer, read-out: Log10 TGI (converted)): 3.09 nM
GI50 (RXF-393; RXF-393, renal cancer, read-out: averaged negative log10 GI50 (converted)): 0.479 nM
potency (human tumor cell lines): especially noteworthy
screening profile (human tumor cell lines): characteristic of a general mechanistic class of tubulin-interactive antimitotics
GI50 (human tumor cell lines; Homo sapiens): ~0.7 nM
inhibition of tubulin polymerization (in words) (tubulin): inhibited tubulin polymerization
IC50 (tubulin; purified tubulin): 4900 ± 500 nM
cytotoxicity (in words) [1]: significant cytotoxicity
IC50 ([1]; Mus musculus): 0.4 nM
